Data set [1] addresses MDR1 (P-gp) (Homo sapiens (Human), UniProt P08183). Description: MDCK assay P-gp (MDCK-MDR1 monolayer permeability). It counts as in vitro ADME. Particulars: for Papp A→B: MDCK-MDR1, apical-to-basal, pH 7.4; for efflux ratio: MDCK-MDR1, pH 7.4, Papp (b-a) divided by Papp (a-b), read-out: efflux ratio PEBA/PEAB. How it is done: The MDCK assays provide information on the potential of a compound to pass the blood brain barrier. Permeability measurements across polarized, confluent MDCK-MDR1 cell monolayers grown on permeable filter supports are used as an in vitro absorption model: apparent permeability coefficients (PE) of the compounds across the MDCK-MDR1 cell monolayers are measured (pH 7.4, 37° C.) in apical-to-basal (AB) and basal-to-apical (BA) transport direction. The AB permeability (PEAB) represents drug absorption from the blood into the brain and the BA permeability (PEBA) drug efflux from the brain back into the blood via both, passive permeability as well as active transport mechanisms mediated by efflux and uptake transporters that are expressed on the MDCK-MDR1 cells, predominantly by the overexpressed human MDR1. Identical or similar permeabilities in both transport directions indicate passive permeation (PEBA/PEAB≤1), vectorial permeability points to additional active transport mechanisms. Higher PEBA than PEAB (PEBA/PEAB>5) indicates the involvement of active efflux mediated by MDR1, which might compromise the goal to achieve sufficient brain exposure. Therefore, this assay provides valuable support for selection of compounds applicable for further in vivo testing. High permeability not limited by efflux at the blood brain barrier is a favourable characteristic for compounds that are to be used for drugs acting primarily in the CNS.
Apparent permeability coefficients (Papp) of the compounds across the MDCK-MDR1 monolayers (MDCKII cells transfected with human MDR1 cDNA expression plasmid) are measured in apical-to-basal (AB) and basal-to-apical (BA) direction.
MDCK-MDR1 cells (6×10^5 cells/cm^2) are seeded on filter inserts (Corning, Transwell, polycarbonate, 0.4 μm pore size) and cultured for 9 to 10 days. Compounds dissolved in DMSO stock solution (1-20 mM) are diluted with HTP-4 aqueous buffer (128.13 mM NaCl, 5.36 mM KCl, 1 mM MgSO4, 1.8 mM CaCl2, 4.17 mM NaHCO3, 1.19 mM Na2HPO4, 0.41 mM NaH2PO4, 15 mM HEPES, 20 mM glucose, pH 7.4) supplemented with 0.25% BSA to prepare the transport solutions (final concentration: 1 or 10 μM, final DMSO <=0.5%). The transport solution is applied to the apical or basolateral donor side for measuring A-B or B-A permeability, respectively. The receiver side contains HTP-4 buffer supplemented with 0.25% BSA. Samples are collected at the start and end of experiment from the donor and at various time intervals for up to 2 hours also from the receiver side for concentration measurement by HPLC-MS/MS (RapidFire High-throughput MS System (Agilent) coupled to QTrap 6500 (AB Sciex) or TSQ Vantage (Thermo Scientific)). Sampled receiver volumes are replaced with fresh receiver solution. Efflux ratio is calculated dividing the Papp (b-a) values by the Papp (a-b) values.

A short description of data set [2]: Metabolic stability in pooled human liver microsomes. Particulars: pH 7.6, 1 μM compound, 1 mg/mL microsomal protein, 37° C., NADPH, read-out: Half-life - t½ human liver microsomes. It counts as in vitro ADME. From the text: Stability in human liver microsomes refers to the susceptibility of compounds to biotransformation in the context of selecting and/or designing drugs with favorable pharmacokinetic properties. The primary site of metabolism for many drugs is the liver. Human liver microsomes contain the cytochrome P450s (CYPs), and thus represent a model system for studying drug metabolism in vitro. Enhanced stability in human liver microsomes is associated with several advantages, including increased bioavailability and adequate half-life, which can enable lower and less frequent dosing of patients. Thus, enhanced stability in human liver microsomes is a favorable characteristic for compounds that are to be used for drugs.
The metabolic degradation of the test compound was assayed at 37° C. with pooled human liver microsomes. The final incubation volume of 60 μl per time point contains TRIS buffer pH 7.6 at room temperature (0.1 M), magnesium chloride (5 mM aqueous solution), microsomal protein (1 mg/mL for human) and the test compound at a final concentration of 1 μM. Following a short preincubation period at 37° C., the reactions were initiated by addition of betanicotinamide adenine dinucleotide phosphate, reduced form (NADPH, 1 mM), and terminated by transferring an aliquot into acetonitril after different time points. After centrifugation (10000 g, 5 min), an aliquot of the supernatant was assayed by HPLC-MS/MS as described above for the MDCK assay P-gp for the amount of parent compound. The half-life was determined by the slope of the semi-logarithmic plot of the concentration-time profile.
(Liver microsomes are a subcellular fraction often used to study metabolism.)

Where only a bound is given, the exact number is not on record here.

Regarding `CNC(=O)[C@@H]1CN(Cc2cnc(Oc3ccc(C)cc3F)nc2)CCO1` [Example 20], in data set [1], the apical-to-basolateral permeability (Papp A→B) (commonly the apparent permeability from the apical to the basolateral side of a cell layer) came to 80 ×10⁻⁶ cm/s and the efflux ratio stood at 0.7. Moreover, in data set [2], the half-life (usually the time in which the quantity being followed falls by half) at 1 µM was more than 2.17 h.

For the molecule `CNC(=O)[C@@H]1CN(Cc2cnc(Oc3ccc(F)cc3C)nc2)CCO1` [Example 21], in data set [1], the Papp A→B is 56 ×10⁻⁶ cm/s and the efflux ratio was found to be 1. Besides, in data set [2], the half-life at 1 µM is more than 2.17 h.

`CNC(=O)[C@@H]1CN(Cc2cnc(Oc3ccc(C)cc3C)nc2)CCO1` [Example 22]: in data set [1], the Papp A→B was found to be 57 ×10⁻⁶ cm/s and the efflux ratio turned out to be 0.7. The half-life at 1 µM in data set [2] is more than 2.17 h.

Consider `CNC(=O)[C@@H]1CN(Cc2cnc(Oc3ccc(F)cc3F)nc2)CCO1` [Example 23], for which, in data set [1], the Papp A→B came to 65 ×10⁻⁶ cm/s and the efflux ratio was found to be 0.9. Also, the half-life at 1 µM in data set [2] was more than 2.17 h.

Turning to `CNC(=O)[C@@H]1CN(Cc2cnc(Oc3ccc(Cl)cc3F)nc2)CCO1` [Example 24], in data set [1], the Papp A→B turned out to be 56 ×10⁻⁶ cm/s and the efflux ratio is 0.8. Further, in data set [2], the half-life at 1 µM is more than 2.17 h.

Turning to `CNC(=O)[C@@H]1CN(Cc2cnc(Oc3ccc(Cl)cc3)nc2)CCO1` [Example 25], in data set [1], the Papp A→B was 88 ×10⁻⁶ cm/s and the efflux ratio was 0.5. The half-life at 1 µM in data set [2] is more than 2.17 h.

In the case of `CNC(=O)[C@@H]1CN(Cc2cnc(Oc3ccccc3Cl)nc2)CCO1` [Example 26], in data set [1], the Papp A→B was determined as 95 ×10⁻⁶ cm/s and the efflux ratio amounted to 0.6. Besides, the half-life at 1 µM in data set [2] is more than 2.17 h.

`CNC(=O)[C@@H]1CN(Cc2cnc(Oc3ccccc3F)nc2)CCO1` [Example 27]: in data set [1], the apparent permeability from apical to basolateral (Papp A→B) amounted to 54 ×10⁻⁶ cm/s and the efflux ratio was found to be 0.7. Besides, the half-life at 1 µM in data set [2] is more than 2.17 h.

In the case of `CNC(=O)[C@@H]1CN(Cc2cnc(Oc3ccc(C)cc3)nc2)CCO1` [Example 28], in data set [1], the Papp A→B was found to be 83 ×10⁻⁶ cm/s and the efflux ratio amounted to 0.5. The half-life at 1 µM in data set [2] is more than 2.17 h.

Take `CNC(=O)[C@@H]1CN(Cc2cnc(Oc3ccc(F)cc3)nc2)CCO1` [Example 32]: in data set [1], the Papp A→B is 82 ×10⁻⁶ cm/s and the efflux ratio came out at 0.5. The half-life at 1 µM in data set [2] was more than 2.17 h.
